Source: patent US7812177B2, “Potassium channel opener having benzofuroindole skeleton” (Anygen Co., Ltd., priority 2005, dated 2010)
Entries after “also recorded” stand apart in the source; their conditions may differ.

Columns and labels:
BKCa channel = BKCa channel (Homo sapiens, UniProt Q12791); settings: similar assay system, same concentration (20 μM); cited from earlier work
rSlo channel [1] = biological target: T1, rSlo channel (Rattus norvegicus, UniProt Q62976); test: Concentration-dependence of channel opening, compound applied to the extracellular side of membrane patches; type: cell-based; settings: extracellular application
T1 construct: expressed in transfected cells; host or cells: Xenopus laevis oocytes
Description: FIG. 6 illustrates concentration-dependence activity of compound 8 on BKCa channel. FIG. 6A illustrates concentration-dependence activity of rSlo channel. FIG. 6B illustrates concentration-dependence activity of rSlo channel combined with human β1. FIG. 6C illustrates concentration-dependence activity of rSlo channel combined with rat β4 subunit.
(§1) We then measured the concentration-dependence of compound 8 of the present invention. […] Although we were not able to obtain a concentration of compound 8 higher than 300 μM because of its solubility in water, we noticed that compound 8-induced current increases reached plateau levels at around 100 μM. […] We also measured the effects of compound 8 using inside-out patch configuration to determine whether this compound also affects channel activity from the intracellular side. The intracellular Ca^2+ concentration was fixed at 2 μM to activate rSlo channels, and different concentrations of compound 8 were added to the intracellular side of the membrane.

[2] = Solubility in water (highest obtainable concentration); type: physicochemical; settings: read-out: highest obtainable concentration because of solubility in water
Experimental: as §1

[3] = biological target: T2, cloned α subunit of rat BKCa channels, rSlo (Rattus norvegicus, UniProt Q62976); test: Excised outside-out voltage clamp recording, fold increase of BKCa channel currents by extracellularly applied compounds; type: cell-based; settings: extracellular treatment at 20 μM; outside-out patch, Xenopus laevis oocytes expressing rSlo
T2 construct: expressed in transfected cells; host or cells: Xenopus laevis oocytes
Experimental: FIG. 3 illustrates relative fold-increase of BKCa channel activity by extracellularly applied benzofuroindole analogues of present invention. Bar graphs represent fold increases in BKCa channel currents evoked by extracellular treatment of various compounds at 20 μM.
The biological activity of compounds 7˜23 to open BKCa channels and increase the BKCa channel currents was determined by using excised outside-out voltage clamp recording from Xenopus laevis oocytes expressing cloned α subunit of rat BKCa channels, rSlo.

rSlo channel [4] = biological target: T1, rSlo channel; test: Potentiating effect on rSlo channels at various intracellular Ca2+ concentrations, outside-out patch; type: cell-based; settings: 20 μM extracellular
Experimental: FIG. 4 illustrates potency of extracellularly applied compound 22 on rSlo channels in various intracellular Ca^2+ concentrations. Representative raw-traces were shown at different intracellular Ca^2+ concentrations. Intracellular Ca^2+ concentration was increased from Ca^2+-free (A), 0.5 μM (B), 1 μM (C) and 2 μM (D). The concentration of compound 22 was 20 μM on the extracellular side.
To investigate the potentiating effect of compound 22 on rSlo channels at various intracellular Ca^2+ concentrations, rSlo channels were activated in different concentrations of intracellular Ca^2+.
Excised outside-out patch configurations were obtained by making a gigaohm seal, rupturing the membrane pulling the pipette from oocytes. Both of the bath and pipette contained symmetrical 124 mM K^+ ions. Voltage pulses were applied to activate rSlo channel currents from −120 mV to 140 mV in 10 mV increments and intracellular Ca^2+ concentrations were used to activate rSlo channel from 0 (Ca^2+-free solution was to chelate with 5 mM EGTA) to 2 μM in intracellular side.
The representative raw-traces of rSlo channel activated by membrane voltages and intracellular Ca^2+ (FIG. 4). rSlo channel currents were recorded before and after the addition of 20 μM of compound 22.

rSlo channel [5] = biological target: T1, rSlo channel; test: Concentration dependence on macroscopic rSlo channel activity expressed in Xenopus oocytes, Hill fit; type: cell-based
Experimental: FIG. 5 illustrates concentration-dependence of compound 22 on BKCa channel. Data points were fitted with Hill equation.
We performed experiments to determine the concentration dependence for the effect of compound 22 on macroscopic rSlo channel activity expressed in Xenopus oocytes.
Currents were recorded from excised outside-out patches before and after the addition of seven different concentrations of compound 22, from 0 to 300 μM. Channel activity of rSlo was elicited after patch excision with 2 μM intracellular Ca^2+ and increased rapidly with the addition of compound 22. Membrane potential was held at −120 mV and stepped to 50 mV for 50 ms. Relative current differences were determined from the currents of control activated with 2 μM of intracellular Ca^2+ and voltage at 50 mV, normalized with control currents and the obtained data points were fitter with a Hill equation (FIG. 5).

T1 sequence (Q62976 whole entry): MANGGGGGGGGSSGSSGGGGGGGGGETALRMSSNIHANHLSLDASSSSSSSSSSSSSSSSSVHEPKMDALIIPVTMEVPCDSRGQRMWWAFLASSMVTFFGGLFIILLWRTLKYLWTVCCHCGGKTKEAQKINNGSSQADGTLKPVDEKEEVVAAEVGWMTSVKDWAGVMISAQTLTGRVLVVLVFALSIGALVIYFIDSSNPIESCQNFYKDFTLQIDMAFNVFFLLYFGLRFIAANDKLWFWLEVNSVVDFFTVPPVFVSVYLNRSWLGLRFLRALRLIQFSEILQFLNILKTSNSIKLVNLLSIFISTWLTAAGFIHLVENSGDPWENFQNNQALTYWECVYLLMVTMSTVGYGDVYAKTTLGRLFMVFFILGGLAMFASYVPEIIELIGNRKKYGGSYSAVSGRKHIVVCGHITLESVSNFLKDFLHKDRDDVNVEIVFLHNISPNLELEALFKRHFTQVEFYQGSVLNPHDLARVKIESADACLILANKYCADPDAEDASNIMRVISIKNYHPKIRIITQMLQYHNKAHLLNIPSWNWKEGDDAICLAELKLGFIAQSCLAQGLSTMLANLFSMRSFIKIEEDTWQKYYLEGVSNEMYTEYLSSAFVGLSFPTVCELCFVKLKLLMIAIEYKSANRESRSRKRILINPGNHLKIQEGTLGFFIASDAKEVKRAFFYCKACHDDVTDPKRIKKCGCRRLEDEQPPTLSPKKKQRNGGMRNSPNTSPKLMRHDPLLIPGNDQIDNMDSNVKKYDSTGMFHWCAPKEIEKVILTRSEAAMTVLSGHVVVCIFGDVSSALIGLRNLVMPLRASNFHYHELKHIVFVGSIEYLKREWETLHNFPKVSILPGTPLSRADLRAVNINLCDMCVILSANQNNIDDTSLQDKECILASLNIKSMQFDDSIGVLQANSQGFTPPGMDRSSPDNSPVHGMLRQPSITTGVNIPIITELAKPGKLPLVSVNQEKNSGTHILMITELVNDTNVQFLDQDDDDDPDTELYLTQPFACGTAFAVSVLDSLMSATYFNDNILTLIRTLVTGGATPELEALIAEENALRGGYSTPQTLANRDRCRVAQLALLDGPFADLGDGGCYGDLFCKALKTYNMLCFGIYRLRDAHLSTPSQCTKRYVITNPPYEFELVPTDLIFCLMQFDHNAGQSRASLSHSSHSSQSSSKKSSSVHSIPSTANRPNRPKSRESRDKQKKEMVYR
T2 sequence (Q62976 whole entry): as above
Chain of BKCa channel (Q12791 whole entry): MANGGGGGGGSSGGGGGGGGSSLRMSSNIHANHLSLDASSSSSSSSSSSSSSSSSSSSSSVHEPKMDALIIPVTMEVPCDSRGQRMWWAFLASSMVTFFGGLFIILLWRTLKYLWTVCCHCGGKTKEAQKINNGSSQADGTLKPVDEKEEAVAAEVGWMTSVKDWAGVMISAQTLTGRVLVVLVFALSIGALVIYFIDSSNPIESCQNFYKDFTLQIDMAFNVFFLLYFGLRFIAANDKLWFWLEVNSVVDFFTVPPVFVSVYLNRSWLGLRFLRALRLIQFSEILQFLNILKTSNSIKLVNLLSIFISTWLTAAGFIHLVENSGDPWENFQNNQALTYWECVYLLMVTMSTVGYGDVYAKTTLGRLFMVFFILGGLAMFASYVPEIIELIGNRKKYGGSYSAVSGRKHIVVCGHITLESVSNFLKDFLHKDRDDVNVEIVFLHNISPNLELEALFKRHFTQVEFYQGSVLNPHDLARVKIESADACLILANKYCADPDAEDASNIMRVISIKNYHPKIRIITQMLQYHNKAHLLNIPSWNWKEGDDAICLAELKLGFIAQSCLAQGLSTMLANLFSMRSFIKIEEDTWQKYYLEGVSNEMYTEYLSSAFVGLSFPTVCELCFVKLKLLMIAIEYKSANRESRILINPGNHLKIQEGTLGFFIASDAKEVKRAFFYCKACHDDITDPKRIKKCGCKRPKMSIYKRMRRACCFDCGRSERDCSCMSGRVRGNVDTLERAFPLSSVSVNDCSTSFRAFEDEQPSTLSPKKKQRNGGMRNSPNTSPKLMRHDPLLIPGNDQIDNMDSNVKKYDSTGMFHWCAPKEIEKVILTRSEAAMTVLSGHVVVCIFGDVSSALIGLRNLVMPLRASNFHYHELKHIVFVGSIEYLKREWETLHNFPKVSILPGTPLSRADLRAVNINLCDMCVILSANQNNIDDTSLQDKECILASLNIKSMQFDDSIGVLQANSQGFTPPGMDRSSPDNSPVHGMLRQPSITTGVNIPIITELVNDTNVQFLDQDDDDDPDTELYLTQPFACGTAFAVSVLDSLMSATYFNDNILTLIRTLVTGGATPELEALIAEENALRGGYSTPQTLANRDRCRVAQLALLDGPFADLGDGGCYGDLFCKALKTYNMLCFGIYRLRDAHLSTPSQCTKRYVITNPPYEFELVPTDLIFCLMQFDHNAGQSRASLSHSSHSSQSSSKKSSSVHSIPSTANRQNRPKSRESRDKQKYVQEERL

## COc1ccc(Cl)cc1[C@]1(F)C(=O)Nc2cc(C(F)(F)F)ccc21 [BMS-204352]
BKCa channel
  reported fold increase: around 1.5

## COc1ccc(Cl)cc1-c1c(CCO)c(=O)[nH]c2ccc(C(F)(F)F)cc12 [Compound 2]
BKCa channel
  reported fold increase: ~3.7

## O=C(O)c1cccc2c1[nH]c1c3ccc(C(F)(F)F)cc3oc21 [Compound 8, 7-Trifluoromethyl-10H-benzo[4,5]furo[3,2-b]indole-1-carboxylic acid]
rSlo channel [1]
  EC50: 8.9 ± 1.5 µM
[2]
  solubility: ≤ 300 µM

## FC(F)(F)c1ccc2c(c1)oc1c3ccc(Cl)c(Cl)c3[nH]c21 [Compound 18, 1,2-Dichloro-7-trifluoromethyl-10H-benzo[4,5]furo[3,2-b]indole]
[3]
  fold increase of BKCa channel currents: activity near to the basal level

## FC(F)(F)c1ccc2c(c1)oc1c2[nH]c2cc(Cl)cc(Cl)c21 [Compound 19, 2,4-Dichloro-7-trifluoromethyl-10H-benzo[4,5]furo[3,2-b]indole]
[3]
  fold increase of BKCa channel currents: activity near to the basal level

## O=C(O)c1ccc(Cl)c2c1[nH]c1c3ccc(C(F)(F)F)cc3oc12 [Compound 22, 4-Chloro-7-trifluoromethyl-10H-benzo[4,5]furo[3,2-b]indole-1-carboxylic acid]
rSlo channel [4]; all tested intracellular Ca2+ concentrations
  reversibility of enhanced rSlo current by washout: could be removed by washout
rSlo channel [4]; intracellular Ca2+ from Ca2+-free to 2 μM
  effect on rSlo channel current: markedly significant effects on rSlo channel current; also recorded: intracellular Ca^2+ concentrations do not affect the potentiating effect
rSlo channel [5]; 50 nM to 300 μM
  effect on rSlo current over concentration range: enhanced rSlo current in a concentration dependent manner
rSlo channel [5]; 2 μM intracellular Ca2+, step to 50 mV, N=5, read-out: Kd, apparent dissociation constant (Hill fit)
  Kd: 4.01 ± 0.75 µM
[3]
  fold increase of BKCa channel currents: more than 6 fold

## O=C(O)c1cc(Cl)cc2c1[nH]c1c3ccc(C(F)(F)F)cc3oc21 [Compound 23, 3-Chloro-7-trifluoromethyl-10H-benzo[4,5]furo[3,2-b]indole-1-carboxylic acid]
[3]
  fold increase of BKCa channel currents: close but not better channel opening activity than compound 22
